Test results from patent US8906925B2, “Pyrido[4,3-B]indoles containing rigid moieties” (Medivation Technologies, Inc., priority 2008, dated 2014).
Where “and” joins values, the source holds several entries; their conditions need not be identical. Equal entries are not always repeated. Where two headings read alike, the source gives them in different places.

What was measured:
[1] = biological target: T1, human recombinant adrenergic α2B receptor (Homo sapiens, UniProt P18089); assay: Adrenergic α2B radioligand binding ([3H]Rauwolscine); settings: compound at 1 μM
T1 construct: expressed in transfected cells; host or cells: Chinese hamster ovary (CHO-K1) cells
T1 sequence (P18089 1-450): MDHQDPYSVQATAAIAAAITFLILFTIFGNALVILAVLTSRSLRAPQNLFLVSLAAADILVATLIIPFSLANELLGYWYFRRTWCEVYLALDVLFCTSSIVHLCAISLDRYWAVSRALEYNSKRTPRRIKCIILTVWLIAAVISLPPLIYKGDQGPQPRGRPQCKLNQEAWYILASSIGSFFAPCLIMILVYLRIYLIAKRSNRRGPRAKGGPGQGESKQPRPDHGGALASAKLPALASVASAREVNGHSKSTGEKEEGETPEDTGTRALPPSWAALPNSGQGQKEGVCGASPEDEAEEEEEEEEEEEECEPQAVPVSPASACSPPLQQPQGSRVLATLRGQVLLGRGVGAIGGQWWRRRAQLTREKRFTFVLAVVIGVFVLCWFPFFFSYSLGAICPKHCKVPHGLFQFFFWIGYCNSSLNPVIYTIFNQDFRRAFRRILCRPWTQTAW
Outline: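 Membranes from CHO-K1 cells expressing the receptor were incubated with 2.5 nM [3H]Rauwolscine for 60 min at 25 °C in Tris-HCl buffer pH 7.4 with MgCl2, EDTA and BSA. Non-specific binding was defined with 10 μM prazosin. Compounds were tested at ≤1 μM in 1% DMSO and read out as % inhibition of specific binding after filtration.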

[2] = biological target: T2, human recombinant histamine H2 receptor (Homo sapiens, UniProt P25021); assay: Histamine H2 radioligand binding ([125I]Aminopotentidine); settings: read-out: Histamine Binding (1 μM) H2, percent inhibition of specific binding, 1 μM
T2 construct: expressed in transfected cells; host or cells: Chinese hamster ovary (CHO) K1 cells
T2 sequence (P25021 whole entry): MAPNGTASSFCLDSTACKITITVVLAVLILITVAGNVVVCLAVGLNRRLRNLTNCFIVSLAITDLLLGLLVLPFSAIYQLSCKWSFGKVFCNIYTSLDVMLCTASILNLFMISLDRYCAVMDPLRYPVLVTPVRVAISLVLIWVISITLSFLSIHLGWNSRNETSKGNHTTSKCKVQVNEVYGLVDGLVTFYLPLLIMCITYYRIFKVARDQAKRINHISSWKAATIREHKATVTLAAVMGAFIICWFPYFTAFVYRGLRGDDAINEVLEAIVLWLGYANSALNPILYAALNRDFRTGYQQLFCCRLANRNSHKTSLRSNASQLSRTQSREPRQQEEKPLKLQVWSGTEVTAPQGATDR
Outline: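 Receptor source: human recombinant H2 in CHO-K1 cells, assayed in 50 mM phosphate pH 7.4. Competition against 0.1 nM [125I]aminopotentidine, 120 min, 25 °C; 3 μM tiotidine sets nonspecific binding, filter-bound counts give specific binding.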

[3] = biological target: T3, human recombinant serotonin (5-Hydroxytryptamine) 5-HT2C receptor (Homo sapiens, UniProt P28335); assay: Serotonin 5-HT2C radioligand binding ([3H]Mesulergine); settings: for inhibition at 0.1 µM: compound at 0.1 μM; for inhibition at 0.1 µM / inhibition at 1 µM: read-out: Inhibition of ligand binding, Serotonin 5-HT2C (percent inhibition of specific binding)
T3 construct: expressed in transfected cells; host or cells: Chinese hamster ovary (CHO-K1) cells
T3 sequence (P28335 33-458): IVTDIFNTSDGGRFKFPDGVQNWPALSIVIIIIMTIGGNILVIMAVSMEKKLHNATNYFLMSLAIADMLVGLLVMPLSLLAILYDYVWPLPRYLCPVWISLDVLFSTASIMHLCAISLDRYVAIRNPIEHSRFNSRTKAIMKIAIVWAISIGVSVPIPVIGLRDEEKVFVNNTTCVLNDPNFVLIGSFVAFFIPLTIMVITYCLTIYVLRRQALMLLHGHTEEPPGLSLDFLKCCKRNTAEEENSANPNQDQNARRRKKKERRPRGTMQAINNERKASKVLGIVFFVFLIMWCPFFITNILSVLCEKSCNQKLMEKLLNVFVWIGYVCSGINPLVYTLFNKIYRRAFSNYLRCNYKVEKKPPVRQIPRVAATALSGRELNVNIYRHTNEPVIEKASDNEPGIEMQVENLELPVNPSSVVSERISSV
Outline: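 Compounds tested at 1 μM or lower (1% DMSO vehicle) for displacement of 1 nM [3H]Mesulergine over 60 min at 25° C. Specific binding determined by filtration counting, with 1 μM Mianserin defining non-specific binding; values are percent inhibition.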

[4] = biological target: T4, human recombinant serotonin (5-Hydroxytryptamine) 5-HT2A receptor (Homo sapiens, UniProt P28223); assay: Serotonin 5-HT2A radioligand binding ([3H]Ketanserin); settings: for inhibition at 1 µM: read-out: Inhibition of ligand binding, Serotonin 5-HT2A (percent inhibition of specific binding), compound at 1 μM; for inhibition at 0.1 µM: read-out: Inhibition of ligand binding, Serotonin 5-HT2A (percent inhibition of specific binding), compound at 0.1 μM
T4 construct: expressed in transfected cells; host or cells: Chinese hamster ovary (CHO-K1) cells
T4 sequence (P28223 whole entry): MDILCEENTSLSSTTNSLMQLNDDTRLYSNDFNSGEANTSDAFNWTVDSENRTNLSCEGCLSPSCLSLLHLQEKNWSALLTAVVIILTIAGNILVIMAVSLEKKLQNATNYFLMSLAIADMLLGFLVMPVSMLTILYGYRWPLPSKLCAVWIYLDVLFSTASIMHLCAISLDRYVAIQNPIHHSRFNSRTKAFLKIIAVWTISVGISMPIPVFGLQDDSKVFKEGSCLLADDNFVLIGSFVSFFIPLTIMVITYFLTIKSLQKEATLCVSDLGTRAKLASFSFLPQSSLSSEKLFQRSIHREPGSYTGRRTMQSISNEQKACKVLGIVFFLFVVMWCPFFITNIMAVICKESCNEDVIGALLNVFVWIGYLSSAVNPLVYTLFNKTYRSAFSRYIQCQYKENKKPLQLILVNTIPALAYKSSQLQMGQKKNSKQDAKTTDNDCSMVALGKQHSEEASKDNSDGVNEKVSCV
Experimental: Compounds of the invention were incubated with 0.5 nM [^3H]Ketanserin for 60 min. at 25° C. Non-specific binding was estimated in the presence of 1 μM Mianserin. Receptor proteins were filtered and washed, the filters were then counted to determine [^3H]Ketanserin specifically bound.

histamine receptor H1 = histamine receptor H1 (Homo sapiens, UniProt P35367); assay: Histamine H1 radioligand binding ([3H]Pyrilamine); settings: for inhibition at 1 µM: read-out: Histamine Binding (1 μM) H1, percent inhibition of specific binding, 1 μM
Sequence of histamine receptor H1 (P35367 whole entry): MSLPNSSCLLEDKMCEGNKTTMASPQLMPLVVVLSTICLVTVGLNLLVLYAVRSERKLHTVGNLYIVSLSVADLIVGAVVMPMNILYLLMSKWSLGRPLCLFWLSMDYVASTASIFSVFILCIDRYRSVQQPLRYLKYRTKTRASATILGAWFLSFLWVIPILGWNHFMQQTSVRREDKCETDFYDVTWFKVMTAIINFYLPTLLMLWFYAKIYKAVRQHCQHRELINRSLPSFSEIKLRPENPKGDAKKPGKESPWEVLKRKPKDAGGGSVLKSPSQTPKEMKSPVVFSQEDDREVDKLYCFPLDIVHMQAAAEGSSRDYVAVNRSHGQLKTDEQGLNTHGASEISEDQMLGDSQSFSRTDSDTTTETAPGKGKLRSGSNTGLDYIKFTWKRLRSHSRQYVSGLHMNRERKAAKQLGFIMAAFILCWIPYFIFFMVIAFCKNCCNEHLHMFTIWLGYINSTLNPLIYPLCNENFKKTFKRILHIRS
Outline: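 Values are percent inhibition of specific [3H]pyrilamine (1.2 nM) binding with compounds at ≤1 μM (1% DMSO vehicle); 180 min incubation at 25 °C, pH 7.4 Tris buffer, on CHO-expressed human H1 receptor; 1 μM pyrilamine defined nonspecific binding, bound ligand counted after filtration.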

[5] = percent inhibition of specific binding, read-out: Inhibition of ligand binding, Adrenergic α2B
[6] = […] [3H]Rauwolscine, read-out: Inhibition of ligand binding, Adrenergic α2B (percent inhibition of specific binding)

SMILES	inhibition at 1 µM [1, 5]	inhibition at 1 µM [2]	inhibition at 0.1 µM [3]	inhibition at 1 µM ([3]; compound at 1 μM)	inhibition at 1 µM [4]	inhibition at 1 µM (histamine receptor H1)	Inhibition of ligand binding, Serotonin 5-HT2C (percent inhibition of specific binding) ([3]; compound at 1 μM, 1 µM)	Inhibition of ligand binding, Serotonin 5-HT2A (percent inhibition of specific binding) ([4]; compound at 1 μM, 1 µM)	Histamine Binding (1 μM) H1, percent inhibition of specific binding (histamine receptor H1)	inhibition at 1 µM [1, 6]	inhibition at 0.1 µM [4]
CCN1CCc2c(c3cc(C)ccc3n2CC(O)c2ccc(C)cc2)C1 (racemic) [Compound 51, racemic-2-(2-ethyl-1,2,3,4-tetrahydro-8-methylpyrido[4,3-b]indol-5-yl)-1-p-tolylethanol]	118%	59%	43%	84%	102%	100%	–	–	–	–	–
CN1CCc2c(c3cc(Cl)ccc3n2C/C(=C\CCO)c2ccc(F)cc2)C1 [Compound No. 348, (Z)-5-(8-chloro-2-methyl-3,4-dihydro-1H-pyrido[4,3-b]indol-5(2H)-yl)-4-(4-fluorophenyl)pent-3-en-1-ol]	105%	73%	–	91%	99%	32%	95%	100%	38%	–	–
Cc1ccc2c(c1)c1c(n2C/C(=C/C(=O)O)c2ccc(F)cc2)CCN(C)C1 [Compound No. 352, (E)-4-(2,8-dimethyl-3,4-dihydro-1H-pyrido[4,3-b]indol-5(2H)-yl)-3-(4-fluorophenyl)but-2-enoic acid]	–	15%	–	93%	84%	4%	–	–	–	47%	–
Cc1ccc2c(c1)c1c(n2CC(C)(O)c2cccnc2)CCN(C)C1 (stereo not shown) [Compound 60, 1-(1,2,3,4-tetrahydro-2,8-dimethylpyrido[4,3-b]indol-5-yl)-2-(pyridin-3-yl)propan-2-ol]	96%	40%	–	86%	78%	52%	–	–	–	–	–
C/C(=C\n1c2c(c3cc(C)ccc31)CN(C)CC2)c1ccc(F)cc1 [Compound 87, (E)-5-(2-(4-fluorophenyl)prop-1-enyl)-2,3,4,5-tetrahydro-2,8-dimethyl-1H-pyrido[4,3-b]indole]	121%	100%	101%	100%	99%	65%	–	–	81%	–	100%
C/C=C/C(=C\n1c2c(c3cc(Cl)ccc31)CN(C)CC2)c1ccc(F)cc1 [Compound 204, 8-chloro-5-((1E,3E)-2-(4-fluorophenyl)penta-1,3-dienyl)-2-methyl-2,3,4,5-tetrahydro-1H-pyrido[4,3-b]indole]	86%	101%	–	102%	101%	55%	–	–	–	–	–
CCCC/C(=C\n1c2c(c3cc(Cl)ccc31)CN(C)CC2)c1ccc(F)cc1 [Compound 208, (E)-8-chloro-5-(2-(4-fluorophenyl)hex-1-enyl)-2-methyl-2,3,4,5-tetrahydro-1H-pyrido[4,3-b]indole]	103%	102%	–	102%	102%	64%	–	–	–	–	–
CN1CCc2c(c3cc(Cl)ccc3n2CC(O)(c2ccc(F)cc2)C2CC2)C1 (stereo not shown) [Compound 82, 2-(8-chloro-1,2,3,4-tetrahydro-2-methylpyrido[4,3-b]indol-5-yl)-1-cyclopropyl-1-(4-fluorophenyl)ethanol]	99%	99%	94%	105%	100%	–	–	–	35% and 64%	–	92%
COc1ccc(C#Cn2c3c(c4cc(Cl)ccc42)CN(C)CC3)cc1F [Compound No. 477, 8-chloro-5-((3-fluoro-4-methoxyphenyl)ethynyl)-2-methyl-2,3,4,5-tetrahydro-1H-pyrido[4,3-b]indole]	–	97%	–	99%	95%	17%	–	–	–	107%	–
Cc1ccc2c(c1)c1c(n2C#Cc2ccc(Cl)cc2)CCN(C)C1 [Compound No. 481, 5-((4-chlorophenyl)ethynyl)-2,8-dimethyl-2,3,4,5-tetrahydro-1H-pyrido[4,3-b]indole]	–	97%	–	104%	101%	12%	–	–	–	98%	–
C/C(=C/n1c2c(c3cc(Cl)ccc31)CN(C)CC2)c1ccccc1F [Compound 212, (Z)-8-chloro-5-(2-(2-fluorophenyl)prop-1-enyl)-2-methyl-2,3,4,5-tetrahydro-1H-pyrido[4,3-b]indole]	105%	84%	–	104%	91%	70%	–	–	–	–	–
Cc1ccc2c(c1)c1c(n2CC(O)c2ccc(F)cc2)CCN(C)C1 (stereo not shown) [Compound 172, 2-(2,8-dimethyl-3,4-dihydro-1H-pyrido[4,3-b]indol-5(2H)-yl)-1-(4-fluorophenyl)ethanol]	104%	65%	–	97%	91%	95%	–	–	–	–	–
C=C(Cn1c2c(c3cc(C)ccc31)CN(C)CC2)c1ccc(F)cc1 [Compound 132, 5-(2-(4-fluorophenyl)allyl)-2,3,4,5-tetrahydro-2,8-dimethyl-1H-pyrido[4,3-b]indole]	118%	96%	–	96%	100%	96%	–	–	–	–	–
C/C(=C\n1c2c(c3cc(Cl)ccc31)CN(C)CC2)c1ccc(Cl)cc1 [Compound 100, (E)-8-chloro-5-(2-(4-chlorophenyl)prop-1-enyl)-2,3,4,5-tetrahydro-2-methyl-1H-pyrido[4,3-b]indole]	97%	100%	104%	97%	101%	65%	–	–	67%	–	97%
C=C(Cn1c2c(c3cc(Cl)ccc31)CN(C)CC2)c1ccc(F)cc1 [Compound 128, 8-chloro-5-(2-(4-fluorophenyl)allyl)-2,3,4,5-tetrahydro-2-methyl-1H-pyrido[4,3-b]indole]	120%	100%	–	100%	100%	98%	–	–	–	–	99%
